Patent US10487068B2, “Pyridazine derivatives as RORc modulators” (Genentech, Inc., priority 2015, dated 2019)

Each molecule was assayed against T1, RORc ligand binding domain (Homo sapiens, UniProt P51449) (assay: In Vitro RORc Ligand Binding Assay). Conditions: RORc IC50, radioligand 25-[3H]hydroxycholesterol 6 nM; 0.6 ug/mL RORc receptor; 3 h at 25° C.
T1 sequence (P51449 269-508 limits assumed): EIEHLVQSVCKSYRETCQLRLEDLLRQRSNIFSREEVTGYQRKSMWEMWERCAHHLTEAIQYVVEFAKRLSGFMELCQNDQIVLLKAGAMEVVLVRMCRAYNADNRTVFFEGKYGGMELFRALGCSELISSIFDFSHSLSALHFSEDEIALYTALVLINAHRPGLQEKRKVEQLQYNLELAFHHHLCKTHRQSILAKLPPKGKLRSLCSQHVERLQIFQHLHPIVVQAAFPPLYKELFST
In the case of `CC1(C)[C@H]2CC[C@]1(c1cncc(-c3nc([C@H](O)C(F)(F)F)n[nH]3)n1)c1nnc(-c3c(F)cccc3F)cc12` [Example 309, (S)-1-(5-(6-((5R,8S)-3-(2,6-difluorophenyl)-9,9-dimethyl-5,6,7,8-tetrahydro-5,8-methanocinnolin-8-yl)pyrazin-2-yl)-1H-1,2,4-triazol-3-yl)-2,2,2-trifluoroethanol], the IC50 is reported as 88.4 nM. `CC1(C)[C@H]2CC[C@]1(c1cccc(-c3nc(CCO)n[nH]3)n1)c1nnc(-c3c(F)cccc3F)cc12` [Example 310, 2-(5-(6-((5R,8S)-3-(2,6-difluorophenyl)-9,9-dimethyl-5,6,7,8-tetrahydro-5,8-methanocinnolin-8-yl)pyridin-2-yl)-1H-1,2,4-triazol-3-yl)ethanol] was tested, and the IC50 was 73.5 nM. `C[C@@H](O)Cc1n[nH]c(-c2cccc([C@@]34CC[C@@H](c5cc(-c6c(F)cccc6F)nnc53)C4(C)C)n2)n1` [Example 311, (R)-1-(5-(6-((5R,8S)-3-(2,6-difluorophenyl)-9,9-dimethyl-5,6,7,8-tetrahydro-5,8-methanocinnolin-8-yl)pyridin-2-yl)-1H-1,2,4-triazol-3-yl)propan-2-ol] showed an IC50 of 71.1 nM. With `C[C@H](O)Cc1n[nH]c(-c2cccc([C@@]34CC[C@@H](c5cc(-c6c(F)cccc6F)nnc53)C4(C)C)n2)n1` [Example 312, (S)-1-(5-(6-((5R,8S)-3-(2,6-difluorophenyl)-9,9-dimethyl-5,6,7,8-tetrahydro-5,8-methanocinnolin-8-yl)pyridin-2-yl)-1H-1,2,4-triazol-3-yl)propan-2-ol] the IC50 was 62.7 nM. Work on `CC1(C)[C@H]2CC[C@]1(c1cccc(-c3cc(CO)n[nH]3)n1)c1nnc(-c3c(F)cccc3F)cc12` [Example 313, (5-(6-((5R,8S)-3-(2,6-difluorophenyl)-9,9-dimethyl-5,6,7,8-tetrahydro-5,8-methanocinnolin-8-yl)pyridin-2-yl)-1H-pyrazol-3-yl)methanol] yielded an IC50 of 1.6 nM. For `CC(C)(O)c1noc(-c2cccc([C@@]34CC[C@@H](c5cc(-c6c(F)cccc6F)nnc53)C4(C)C)n2)n1` [Example 314, 2-(5-(6-((5R,8S)-3-(2,6-difluorophenyl)-9,9-dimethyl-5,6,7,8-tetrahydro-5,8-methanocinnolin-8-yl)pyridin-2-yl)-1,2,4-oxadiazol-3-yl)propan-2-ol], the IC50 was 1.5 nM. With `CC1(C)[C@H]2CC[C@]1(c1cncc(OCC(N)=O)n1)c1nnc(-c3c(F)cccc3F)cc12` [Example 315, 2-((6-((5R,8S)-3-(2,6-difluorophenyl)-9,9-dimethyl-5,6,7,8-tetrahydro-5,8-methanocinnolin-8-yl)pyrazin-2-yl)oxy)acetamide] the IC50 was 94.1 nM. `CC(C)(O)COc1cncc([C@@]23CC[C@@H](c4cc(-c5c(F)cccc5F)nnc42)C3(C)C)n1` [Example 316, 1-((6-((5R,8S)-3-(2,6-difluorophenyl)-9,9-dimethyl-5,6,7,8-tetrahydro-5,8-methanocinnolin-8-yl)pyrazin-2-yl)oxy)-2-methylpropan-2-ol] gave an IC50 of 36.4 nM. Molecule `CC1(C)[C@H]2CC[C@]1(c1cccc(-c3nc(C4(O)CC4)n[nH]3)n1)c1nnc(-c3c(F)cccc3F)cc12` [Example 317, 1-(5-(6-((5R,8S)-3-(2,6-difluorophenyl)-9,9-dimethyl-5,6,7,8-tetrahydro-5,8-methanocinnolin-8-yl)pyridin-2-yl)-1H-1,2,4-triazol-3-yl)cyclopropanol] has an IC50 of 9.2 nM. For `CC[C@@H](O)c1n[nH]c(-c2cccc([C@@]34CC[C@@H](c5cc(-c6c(F)cccc6F)nnc53)C4(C)C)n2)n1` [Example 318, (R)-1-(5-(6-((5R,8S)-3-(2,6-difluorophenyl)-9,9-dimethyl-5,6,7,8-tetrahydro-5,8-methanocinnolin-8-yl)pyridin-2-yl)-1H-1,2,4-triazol-3-yl)propan-1-ol], the IC50 was 10.8 nM. `CC1(C)[C@H]2CC[C@]1(c1cccc(-c3nc(C4(O)COC4)n[nH]3)n1)c1nnc(-c3c(F)cccc3F)cc12` [Example 320, 3-(5-(6-((5R,8S)-3-(2,6-difluorophenyl)-9,9-dimethyl-5,6,7,8-tetrahydro-5,8-methanocinnolin-8-yl)pyridin-2-yl)-1H-1,2,4-triazol-3-yl)oxetan-3-ol] gave an IC50 of 9 nM. Work on `CC1(C)[C@H]2CC[C@]1(c1cccc(-c3nc(CS(C)(=O)=O)n[nH]3)n1)c1nnc(-c3c(F)cccc3F)cc12` [Example 321] yielded an IC50 of 12.7 nM. For `CC[C@H](O)c1n[nH]c(-c2cccc([C@@]34CC[C@@H](c5cc(-c6c(F)cccc6F)nnc53)C4(C)C)n2)n1` [Example 322, (S)-1-(5-(6-((5R,8S)-3-(2,6-difluorophenyl)-9,9-dimethyl-5,6,7,8-tetrahydro-5,8-methanocinnolin-8-yl)pyridin-2-yl)-1H-1,2,4-triazol-3-yl)propan-1-ol], the IC50 was 11.5 nM. In the case of `CC1(C)[C@H]2CC[C@]1(c1ccnc(-n3cnc(CC(N)=O)n3)n1)c1nnc(-c3c(F)cccc3F)cc12` [Example 323], the IC50 is reported as 11.2 nM. With `CC(C)(O)Cc1ccn(-c2nccc([C@@]34CC[C@@H](c5cc(-c6c(F)cccc6F)nnc53)C4(C)C)n2)n1` [Example 324] the IC50 was 9.5 nM. `CC1(C)[C@H]2CC[C@]1(c1cncc(-c3nc(C(N)=O)co3)n1)c1nnc(-c3c(F)cccc3F)cc12` [Example 325, 2-(6-((5R,8S)-3-(2,6-difluorophenyl)-9,9-dimethyl-5,6,7,8-tetrahydro-5,8-methanocinnolin-8-yl)pyrazin-2-yl)oxazole-4-carboxamide] showed an IC50 of 6.7 nM. With `CC1(C)[C@H]2CC[C@]1(c1cncc(-c3nc(C(=O)NCCO)co3)n1)c1nnc(-c3c(F)cccc3F)cc12` [Example 326, 2-(6-((5R,8S)-3-(2,6-difluorophenyl)-9,9-dimethyl-5,6,7,8-tetrahydro-5,8-methanocinnolin-8-yl)pyrazin-2-yl)-N-(2-hydroxyethyl)oxazole-4-carboxamide] the IC50 was 10.1 nM. `CC1(C)[C@H]2CC[C@]1(c1ccnc(N3CCOCC3)n1)c1nnc(-c3c(F)cccc3F)cc12` [Example 328] gave an IC50 of 2.2 nM. With `CC1(C)[C@H]2CC[C@]1(c1ccnc(N3CCCC3)n1)c1nnc(-c3c(F)cccc3F)cc12` [Example 329] the IC50 was 2.8 nM. With `CC1(C)[C@H]2CC[C@]1(c1ccnc(N3CC[C@H](O)C3)n1)c1nnc(-c3c(F)cccc3F)cc12` [Example 330] the IC50 was 4.6 nM. With `CC1(C)[C@H]2CC[C@]1(c1ccnc(OCCO)n1)c1nnc(-c3c(F)cccc3F)cc12` [Example 333] the IC50 was 4.8 nM. `CC1(C)[C@H]2CC[C@]1(c1ccnc(N3CCO[C@@H](CO)C3)n1)c1nnc(-c3c(F)cccc3F)cc12` [Example 334] showed an IC50 of 5 nM. `CC1(C)[C@H]2CC[C@]1(c1ccnc(N3CCO[C@H](CO)C3)n1)c1nnc(-c3c(F)cccc3F)cc12` [Example 335] showed an IC50 of 6.2 nM. For `CC1(C)[C@H]2CC[C@]1(c1ccnc(N3CC4(CCO4)C3)n1)c1nnc(-c3c(F)cccc3F)cc12` [Example 336], the IC50 was 13 nM. In the case of `CC1(C)[C@H]2CC[C@]1(c1ccnc(N3CCNC(=O)C3)n1)c1nnc(-c3c(F)cccc3F)cc12` [Example 337], the IC50 is reported as 6 nM. For `CC1(C)[C@H]2CC[C@]1(c1ccnc(N3CCN(S(C)(=O)=O)CC3)n1)c1nnc(-c3c(F)cccc3F)cc12` [Example 338], the IC50 was 3.2 nM.
